The assay deals with GPR17 (Homo sapiens, UniProt Q13304). Briefly: cAMP accumulation functional assay (HTRF), Schild analysis against MDL29,951 in CHO hGPR17. The settings on record: CHO hGPR17, Schild analysis vs MDL29,951, 5 μM forskolin; read-out: cAMP assay pA2 (converted). Also noted: host or cells: Flp-In T-REx CHO. It counts as cell-based. Here is the method: Flp-In T-REx CHO cells stably expressing human GPR17 receptor (CHO hGPR17) from Evi Kostenis' lab (Bonn University, Germany) were cultured at 37° C. in a humidified atmosphere of 5% CO2. Cells were grown in DMEM with Nutrient Mixture F-12 supplemented with hygromycin B (500 μg/ml) and blasticidin (30 μg/ml). Expression from the Flp-In locus was induced by treatment with doxycycline (1 μg/ml) for 16-20 h prior assays.
GPR17 activation can also recruit Gi-type G-protein signaling, resulting in a decrease of intracellular cyclic adenosine monophosphate (cAMP). Intracellular cAMP changes can be measured using the HTRF cAMP dynamic assay kit from CisBio (Codolet, France). Using homogenous time-resolved fluorescence technology (HTRF), the assay is based on competition between native cAMP produced by cells and cAMP labelled with the dye d2. The tracer binding was determined by an anti-cAMP antibody labeled with cryptate.
CHO hGPR17 were detached with PBS containing EDTA and dispatched in black 384-well plates with 5,000 cells per well. Cells were first incubated for 30 minutes at room temperature in HBSS Hepes (pH 7.4) containing vehicle or varying concentrations of test GPR17 antagonist/inverse agonist compounds. Then, a dose response curve of MDL29,951 GPR17 agonist (typically from 10^−5M to 10^−10M) was added on vehicle and on each test GPR17 antagonist/inverse agonist compound concentration in a final volume of 20 μL HBSS Hepes buffer (pH 7.4) containing 1% DMSO, 5 μM forskolin and 0.1 mM IBMX. After 60 minutes incubation at room temperature, the reaction is terminated and the cells lysed by adding the d2 detection reagent and the cryptate reagent in 10 μL lysis buffer each according to manufacturer's instructions. After 60 minutes incubation, changes in cAMP concentrations are measured according to manufacturer's instructions using an Envision plate reader with laser excitation. All incubations were performed in duplicate. Data was analyzed using GraphPad Prism software using the 4-parameter logistic equation to measure MDL29,951 pEC50s in absence and presence of GPR17 antagonist/inverse agonist test compounds. Dose ratio (DR) were plotted against antagonist concentrations and Schild analysis provided estimated affinity pA2 of GPR17 antagonist/inverse agonist test compounds.
The activities of the Example compounds tested are depicted in the table below. The activity ranges A, B and C refer to pA2 values in the cAMP assay as follows: “A”: pA2 6.5≤x<7.5, “B”: pA2 7.5≤x<8.5, “C”: 8.5≤pA2.

Consider 31 compounds from patent US12358875B2, “N-(phenyl)-indole-3-sulfonamide derivatives and related compounds as GPR17 modulators for treating CNS disorders such as multiple sclerosis” (UCB Pharma GMBH, priority 2019, dated 2025).

Chain of GPR17 (Q13304 29-367 limits assumed): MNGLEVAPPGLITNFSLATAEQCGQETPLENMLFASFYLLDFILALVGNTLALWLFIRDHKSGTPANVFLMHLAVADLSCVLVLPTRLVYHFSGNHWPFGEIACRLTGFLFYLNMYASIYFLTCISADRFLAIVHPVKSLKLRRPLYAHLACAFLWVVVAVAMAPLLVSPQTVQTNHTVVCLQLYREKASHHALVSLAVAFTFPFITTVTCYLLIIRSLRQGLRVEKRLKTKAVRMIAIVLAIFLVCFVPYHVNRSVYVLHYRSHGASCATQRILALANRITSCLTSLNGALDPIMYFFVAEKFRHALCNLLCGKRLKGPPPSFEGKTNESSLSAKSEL

Consider `Cn1cc(S(=O)(=O)Nc2cc(F)c(Br)cc2F)c2ccc(Cl)nc21` [Example I-3, N-(4-bromo-2,5-difluorophenyl)-6-chloro-1-methylpyrrolo[2,3-b]pyridine-3-sulfonamide], for which the Kb is 3.16 to 31.6 nM.
Under `Cn1cc(S(=O)(=O)Nc2cc(F)c(OC(F)F)cc2F)c2ccc(Cl)nc21` [Example I-4, 6-chloro-N-[4-(difluoromethoxy)-2,5-difluorophenyl]-1-methylpyrrolo[2,3-b]pyridine-3-sulfonamide] stands 3.16 to 31.6 nM; under `O=S(=O)(Nc1cc(F)c(OC(F)F)cc1F)c1cn(CC(F)F)c2nc(Cl)ccc12` [Example I-5, 6-chloro-1-(2,2-difluoroethyl)-N-[4-(difluoromethoxy)-2,5-difluorophenyl]pyrrolo[2,3-b]pyridine-3-sulfonamide], 31.6 to 316 nM.
Under `O=S(=O)(Nc1cc(F)c(Br)cc1F)c1cn(CC(F)F)c2nc(Cl)ccc12` [Example I-6, N-(4-bromo-2,5-difluorophenyl)-6-chloro-1-(2,2-difluoroethyl)pyrrolo[2,3-b]pyridine-3-sulfonamide] stands 31.6 to 316 nM.
Under `O=S(=O)(Nc1cc(F)c(Br)cc1F)c1cn(CC(F)CO)c2cc(Cl)ccc12` (stereo not shown) [Example I-7, N-(4-bromo-2,5-difluorophenyl)-6-chloro-1-(2-fluoro-3-hydroxypropyl)indole-3-sulfonamide] stands 3.16 to 31.6 nM; under `O=S(=O)(Nc1cc(F)c(Br)cc1F)c1cn(CC(F)CO)c2nc(Cl)ccc12` (stereo not shown) [Example I-8, N-(4-bromo-2,5-difluorophenyl)-6-chloro-1-(2-fluoro-3-hydroxypropyl)pyrrolo[2,3-b]pyridine-3-sulfonamide], 31.6 to 316 nM.
For `COc1nc(NS(=O)(=O)c2cn(CCO)c3cc(Cl)ccc23)ccc1Br` [Example I-9, N-(5-bromo-6-methoxypyridin-2-yl)-6-chloro-1-(2-hydroxyethyl)indole-3-sulfonamide], the Kb is 31.6 to 316 nM.
Under `O=S(=O)(Nc1cc(F)c(Br)cc1F)c1cn(CCO)c2cc(Cl)ccc12` [Example I-10, N-(4-bromo-2,5-difluorophenyl)-6-chloro-1-(2-hydroxyethyl)indole-3-sulfonamide] stands 3.16 to 31.6 nM; under `O=C(O)Cn1cc(S(=O)(=O)Nc2cc(F)c(Br)cc2F)c2ccc(Cl)cc21` [Example I-11, 2-[3-[(4-bromo-2,5-difluorophenyl)sulfamoyl]-6-chloroindol-1-yl]acetic acid], at most 3.16 nM; under `Cn1cc(S(=O)(=O)Nc2cc(F)c(Br)cc2F)c2ccc(Cl)cc21` [Example I-12, N-(4-bromo-2,5-difluorophenyl)-6-chloro-1-methylindole-3-sulfonamide], 3.16 to 31.6 nM.
In the case of `O=S(=O)(Nc1cc(F)c(Br)cc1F)c1cn(CCCl)c2cc(Cl)ccc12` [Example I-13, N-(4-bromo-2,5-difluorophenyl)-6-chloro-1-(2-chloroethyl)indole-3-sulfonamide] it was 31.6 to 316 nM; in that of `O=S(=O)(Nc1cc(F)c(Br)cc1F)c1cn(CCCO)c2cc(Cl)ccc12` [Example I-14, N-(4-bromo-2,5-difluorophenyl)-6-chloro-1-(3-hydroxypropyl)indole-3-sulfonamide], 31.6 to 316 nM.
In the case of `CN(C)CCn1cc(S(=O)(=O)Nc2cc(F)c(Br)cc2F)c2ccc(Cl)cc21` [Example I-15, N-(4-bromo-2,5-difluorophenyl)-6-chloro-1-[2-(dimethylamino)ethyl]indole-3-sulfonamide] it was 31.6 to 316 nM.
Consider `O=S(=O)(Nc1cc(F)c(Br)cc1F)c1cn(CCOCCO)c2cc(Cl)ccc12` [Example I-16, N-(4-bromo-2,5-difluorophenyl)-6-chloro-1-[2-(2-hydroxyethoxy)ethyl]indole-3-sulfonamide], for which the Kb is 3.16 to 31.6 nM.
In the case of `CC(=O)Cn1cc(S(=O)(=O)Nc2cc(F)c(Br)cc2F)c2ccc(Cl)cc21` [Example I-17, N-(4-bromo-2,5-difluorophenyl)-6-chloro-1-(2-oxopropyl)indole-3-sulfonamide] it was 31.6 to 316 nM; in that of `CC(O)Cn1cc(S(=O)(=O)Nc2cc(F)c(Br)cc2F)c2ccc(Cl)cc21` (stereo not shown) [Example I-18, N-(4-bromo-2,5-difluorophenyl)-6-chloro-1-(2-hydroxypropyl)indole-3-sulfonamide], at most 3.16 nM.
Under `O=S(=O)(Nc1cc(F)c(Br)cc1F)c1cn(CC(O)CF)c2cc(Cl)ccc12` (stereo not shown) [Example I-19, N-(4-bromo-2,5-difluorophenyl)-6-chloro-1-(3-fluoro-2-hydroxypropyl)indole-3-sulfonamide] stands 3.16 to 31.6 nM; under `O=S(=O)(Nc1cc(F)c(Br)cc1F)c1cn(CC(O)C(F)(F)F)c2cc(Cl)ccc12` (stereo not shown) [Example I-20, N-(4-bromo-2,5-difluorophenyl)-6-chloro-1-(3,3,3-trifluoro-2-hydroxypropyl)indole-3-sulfonamide], 3.16 to 31.6 nM.
In the case of `O=S(=O)(Nc1cc(F)c(OC(F)F)cc1F)c1cn(CCO)c2cc(Cl)ccc12` [Example I-21, 6-chloro-N-[4-(difluoromethoxy)-2,5-difluorophenyl]-1-(2-hydroxyethyl)indole-3-sulfonamide] it was 3.16 to 31.6 nM; in that of `Cn1cc(S(=O)(=O)Nc2cc(F)c(OC(F)F)cc2F)c2ccc(Cl)cc21` [Example I-22, 6-chloro-N-[4-(difluoromethoxy)-2,5-difluorophenyl]-1-methylindole-3-sulfonamide], 3.16 to 31.6 nM; in that of `CCn1cc(S(=O)(=O)Nc2cc(F)c(OC(F)F)cc2F)c2ccc(Cl)cc21` [Example I-23, 6-chloro-N-[4-(difluoromethoxy)-2,5-difluorophenyl]-1-ethylindole-3-sulfonamide], 31.6 to 316 nM.
As to `O=S(=O)(Nc1cc(F)c(OC(F)F)cc1F)c1cn(CCF)c2cc(Cl)ccc12` [Example I-24, 6-chloro-N-[4-(difluoromethoxy)-2,5-difluorophenyl]-1-(2-fluoroethyl)indole-3-sulfonamide], the Kb is 3.16 to 31.6 nM.
In the case of `CCCn1cc(S(=O)(=O)Nc2cc(F)c(OC(F)F)cc2F)c2ccc(Cl)cc21` [Example I-25, 6-chloro-N-[4-(difluoromethoxy)-2,5-difluorophenyl]-1-propylindole-3-sulfonamide] it was 31.6 to 316 nM; in that of `COCCn1cc(S(=O)(=O)Nc2cc(F)c(OC(F)F)cc2F)c2ccc(Cl)cc21` [Example I-26, 6-chloro-N-[4-(difluoromethoxy)-2,5-difluorophenyl]-1-(2-methoxyethyl)indole-3-sulfonamide], 31.6 to 316 nM.
Under `O=S(=O)(Nc1cc(F)c(OC(F)F)cc1F)c1cn(CC(O)CO)c2cc(Cl)ccc12` (stereo not shown) [Example I-27, 6-chloro-N-[4-(difluoromethoxy)-2,5-difluorophenyl]-1-(2,3-dihydroxypropyl)indole-3-sulfonamide] stands at most 3.16 nM; under `O=S(=O)(Nc1cc(F)c(Br)cc1F)c1cn(CC(O)CO)c2cc(Cl)ccc12` (stereo not shown) [Example I-28, N-(4-bromo-2,5-difluorophenyl)-6-chloro-1-(2,3-dihydroxypropyl)indole-3-sulfonamide], 3.16 to 31.6 nM; under `O=S(=O)(Nc1cc(F)c(Br)cc1F)c1cn(CC(O)CO)c2nc(Cl)ccc12` (stereo not shown) [Example I-29, N-(4-bromo-2,5-difluorophenyl)-6-chloro-1-(2,3-dihydroxypropyl)pyrrolo[2,3-b]pyridine-3-sulfonamide], 3.16 to 31.6 nM.
On to `O=S(=O)(Nc1cc(F)c(Br)cc1F)c1cn(CCO)c2nc(Cl)ccc12` [Example I-30, N-(4-bromo-2,5-difluorophenyl)-6-chloro-1-(2-hydroxyethyl)pyrrolo[2,3-b]pyridine-3-sulfonamide], for which the Kb is 3.16 to 31.6 nM.
In the case of `COc1nc(Cl)c(F)cc1NS(=O)(=O)c1cn(C)c2cc(Cl)ccc12` [Example I-31, 6-chloro-N-(6-chloro-5-fluoro-2-methoxypyridin-3-yl)-1-methylindole-3-sulfonamide] it was 3.16 to 31.6 nM; in that of `COc1nc(Cl)c(F)cc1NS(=O)(=O)c1cn(CC(F)F)c2cc(Cl)ccc12` [Example I-32, 6-chloro-N-(6-chloro-5-fluoro-2-methoxypyridin-3-yl)-1-(2,2-difluoroethyl)indole-3-sulfonamide], 3.16 to 31.6 nM.
Under `COc1nc(Cl)c(F)cc1NS(=O)(=O)c1cn(CC(O)CF)c2cc(Cl)ccc12` (stereo not shown) [Example I-33, 6-chloro-N-(6-chloro-5-fluoro-2-methoxypyridin-3-yl)-1-(3-fluoro-2-hydroxypropyl)indole-3-sulfonamide] stands at most 3.16 nM.
